Results as given in US4956179A, “Antibacterial combination of penicillin and cephalosporin” (priority 1971, dated 1990).

How the values were obtained:
Assay type in all cases: cell-based
[1] = system: clinically isolated coliform bacterium (No. 9/70); experiment: M.I.C., serial dilution test (Example 2); settings: coliform No. 9/70; penicillin alone, II alone, 1:1 combination
Description: (§1) The in vitro activity of 6-(D-α-aminophenylacetamido) penicillanic acid (I), 6-[(hexahydro-1H-azepin-1-yl)methyleneamino]penicillanic acid (II) and of a combination (III) of equal parts of the two compounds against clinically isolated enterobacteria was determined in a serial dilution test. Tryptose phosphate broth, containing the appropriate concentrations of the compounds or of the combination of them, was inoculated with 0.5×10^4 -5×10^4 organisms of the various micro-organisms tested and incubated overnight at 37° C. Minimum inhibitory concentrations (M.I.C.) were taken as the concentrations of the compounds or of the combination at which no visible growth occurred.
Using the same technique as described in Example 1 the in vitro-activity of 6-[(hexahydro-1H-azepin-1-yl)methyleneamino]penicillanic acid (II), of various penicillins and of 1:1-combinations of II with the respective penicillin was determined against a clinically isolated coliform bacterium (No. 9/70).

[2] = system: clinically isolated strain of Proteus (Proteus Mirabilis I 190); experiment: M.I.C., serial dilution test (Example 11); settings: cephalosporin alone, II alone, 1:1 combination
Description: as §1
Using the same technique as described in Example 1 the in vitro activity of 6-[(hexahydro-1H-azepin-1-yl)methyleneamino]penicillanic acid (II), of various cephalosporins and of 1:1 combinations of II with these cephalosporins was determined against a clinically isolated strain of Proteus (Proteus Mirabilis I 190).

[3] = system: clinically isolated strain of Klebsiella-Enterobacter (strain 4/71); experiment: M.I.C., serial dilution test (Example 10); settings: cephalosporin alone, II alone, 1:1 combination
Description: as §1
Using the same technique as described in Example 1 the in vitro activity of 6-[(hexahydro-1H-azepin-1-yl)methyleneamino]penicillanic acid (II), of various cephalosporins previously mentioned in this specification, and of 1:1 combinations of II with these cephalosporins was determined against a clinically isolated strain of Klebsiella-Enterobacter (strain 4/71)

Proteus 13/70 = experiment: M.I.C., serial dilution test in tryptose phosphate broth (Example 1); settings: Proteus strain 13/70; overnight at 37° C; III = equal parts I and II
Description: as §1

Proteus 12/70 = experiment: as above; settings: Proteus strain 12/70; overnight at 37° C; III = equal parts I and II
Description: as §1

Proteus vulgaris B = experiment: as above; settings: overnight at 37° C, III = equal parts I and II
Description: as §1

Proteus 20/70 = experiment: as above; settings: Proteus strain 20/70; overnight at 37° C; III = equal parts I and II
Description: as §1

Coliform 10/70 = experiment: as above; settings: Coliform strain 10/70; overnight at 37° C; III = equal parts I and II
Description: as §1

Coliform 3/70 = experiment: as above; settings: Coliform strain 3/70; overnight at 37° C; III = equal parts I and II
Description: as §1

[4] = system: clinically isolated coliform; experiment: Emergence of resistance, subculturing by serial twofold broth dilution (Example 7); settings: I + II 1:1
Description: The strain used was a clinically isolated coliform. As inocula were used bacteria from the tube with the highest concentration of compound still permitting visible growth to the naked eye after incubation at 37° C. overnight.

Proteus strain 9 = experiment: MIC, serial dilution test (Example 9); settings: 1:2 and 2:1 given as I + VII concentrations
Description: as §1
(§2) Using the technique described in Example 1 the in vitro effect of combinations of 6-(D-α-aminophenylacetamido)-penicillanic acid (I) and 6-[(N,N-diethylformamidino)-N'-amino]penicillanic acid (VII) in the ratios 1:1, 1:2 and 2:1 against clinically isolated strains of Coliforma, Klebsiella-Enterobacter and Proteus was determined in serial dilution tests.

Coliforma strain 4 = experiment: MIC, serial dilution test (Example 9); settings: 1:2 and 2:1 given as I + VII concentrations
Description: as §1, §2

[5] = system: Klebsiella-Enterobacter strain 7; experiment: MIC, serial dilution test (Example 9); settings: 1:2 and 2:1 given as I + VII concentrations
Description: as §1, §2

[6] = system: Klebsiella-Enterobacter strain 1; experiment: MIC, serial dilution test (Example 9); settings: 1:2 and 2:1 given as I + VII concentrations
Description: (§3) Tryptose phosphate broth, containing the appropriate concentrations of the compounds or of the combination of them, was inoculated with 0.5×10^4 -5×10^4 organisms of the various micro-organisms tested and incubated overnight at 37° C. Minimum inhibitory concentrations (M.I.C.) were taken as the concentrations of the compounds or of the combination at which no visible growth occurred.

[7] = system: Klebsiella-Enterobacter strain 5; experiment: MIC, serial dilution test (Example 9); settings: 1:2 and 2:1 given as I + VII concentrations
Description: as §3

Proteus 10/70 = experiment: M.I.C., serial dilution test (Example 4); settings: Proteus strain 10/70; V = equal parts I and IV
Description: as §1

[8] = system: Klebsiella-Enterobacter. 5/70; experiment: M.I.C., serial dilution test (Example 4); settings: Klebsiella-Enterobacter. strain 5/70; V = equal parts I and IV
Description: as §1

Coliform 16/70 = experiment: M.I.C., serial dilution test (Example 4); settings: Coliform strain 16/70; V = equal parts I and IV
Description: as §1

[9] = system: Klebsiella-Enterobacter. 1/70; experiment: M.I.C., serial dilution test (Example 4); settings: Klebsiella-Enterobacter. strain 1/70; V = equal parts I and IV
Description: as §1

[10] = system: Klebsiella-Enterobacter. 10/70; experiment: M.I.C., serial dilution test (Example 4); settings: Klebsiella-Enterobacter. strain 10/70; V = equal parts I and IV
Description: as §1

Proteus 9/70 = experiment: M.I.C., serial dilution test (Example 4); settings: Proteus strain 9/70; V = equal parts I and IV
Description: as §1

[11] = system: Klebsiella-Enterobacter. 431; experiment: M.I.C., serial dilution test (Example 4); settings: Klebsiella-Enterobacter. strain 431; V = equal parts I and IV
Description: as §1

Proteus 4/70 = experiment: M.I.C., serial dilution test (Example 4); settings: Proteus strain 4/70; V = equal parts I and IV
Description: as §1

Coliform 14/70 = experiment: M.I.C., serial dilution test (Example 4); settings: Coliform strain 14/70; V = equal parts I and IV
Description: as §1

[12] = system: Klebsiella-Enterobacter. 7/70; experiment: M.I.C., serial dilution test (Example 4); settings: Klebsiella-Enterobacter. strain 7/70; V = equal parts I and IV
Description: as §1

[13] = system: Klebsiella-Enterobacter. 9/70; experiment: M.I.C., serial dilution test (Example 4); settings: Klebsiella-Enterobacter. strain 9/70; V = equal parts I and IV
Description: as §1

Coliform 7/70 = experiment: M.I.C., serial dilution test (Example 4); settings: Coliform strain 7/70; V = equal parts I and IV
Description: as §1

Proteus 7/70 = experiment: M.I.C., serial dilution test (Example 4); settings: Proteus strain 7/70; V = equal parts I and IV
Description: as §1

Coliform 9/70 = experiment: M.I.C., serial dilution test in tryptose phosphate broth (Example 1); settings: Coliform strain 9/70; overnight at 37° C; III = equal parts I and II
Description: as §1

E.coli III = experiment: Emergence of resistance, subculturing by serial twofold broth dilution (Example 6); settings: passage 2; I + IV 1:1
Description: Subculturing using a serial twofold broth dilution technique was performed with 6-(D-α-amino-phenylacetamido)-penicillanic acid (I), 6-[(piperidyl-1)methyleneamino]penicillanic acid (IV) and a 1:1 combination of I+IV. As inocula were used bacteria from the tube with the highest concentration of compound still permitting visible growth to the naked eye after incubation at 37° C. overnight. The following increases in MIC-values were noted.

Coliforma strain 14 = experiment: MIC, serial dilution test (Example 8); settings: VI + VII equal parts
Description: as §1
(§4) Using the technique described in Example 1 the in vitro activity of cephalotin (VI) and 6-[(N,N-diethylformamidino)-N'-amino]penicillanic acid (VII) and of a combination of equal parts of the compounds against clinically isolated strains of Coliforma and Klebsiella-Enterobacter was determined in serial dilution tests.

Coliforma strain 3 = experiment: MIC, serial dilution test (Example 8); settings: VI + VII equal parts
Description: as §1, §4

Coliforma strain 7 = experiment: MIC, serial dilution test (Example 8); settings: VI + VII equal parts
Description: as §1, §4

[14] = system: Klebsiella-Enterobacter strain 5; experiment: MIC, serial dilution test (Example 8); settings: VI + VII equal parts
Description: as §3

## CC1(C)S[C@@H]2[C@H](NC(=O)[C@H](N=[N+]=[N-])c3ccccc3)C(=O)N2[C@H]1C(=O)O [6-(D-α-azidophenylacetamido)penicillanic acid]
[1]
  M.I.C.: 50 µg/mL

## [N-]=[N+]=NCC1=C(C(=O)O)N2C(=O)C(NC(=O)Cc3cccs3)C2SC1 (centres unmarked) [EPC 821/4II]
[2]
  M.I.C.: 12.5 µg/mL
[3]
  M.I.C.: 100 µg/mL

## CC1(C)S[C@@H]2[C@H](NC(=O)[C@H](N)c3ccccc3)C(=O)N2[C@H]1C(=O)O [I, 6-(D-α-aminophenylacetamido)penicillanic acid]
Proteus 13/70
  M.I.C.: 100 µg/mL
Proteus 12/70
  M.I.C.: 100 µg/mL
Proteus vulgaris B
  M.I.C.: 50 µg/mL
Proteus 20/70
  M.I.C.: > 100 µg/mL
Coliform 10/70
  M.I.C.: 3.12 µg/mL
Coliform 3/70
  M.I.C.: 1.56 µg/mL
[4]; passage 1
  MIC: 3,12 μg/ml
Proteus strain 9
  MIC: 3.12 µg/mL
Coliforma strain 4
  MIC: 3.12 µg/mL
[5]
  MIC: > 100 µg/mL
[6]
  MIC: 50 µg/mL
[7]
  MIC: 100 µg/mL
Proteus 10/70
  M.I.C.: 1.56 µg/mL
[8]
  M.I.C.: 100 µg/mL
Coliform 16/70
  M.I.C.: 3.12 µg/mL
[9]
  M.I.C.: 50 µg/mL
[10]
  M.I.C.: 50 µg/mL
Proteus 9/70
  M.I.C.: 6.25 µg/mL
[11]
  M.I.C.: 100 µg/mL
Proteus 4/70
  M.I.C.: 1.56 µg/mL
Coliform 14/70
  M.I.C.: 6.25 µg/mL
[12]
  M.I.C.: > 100 µg/mL
[13]
  M.I.C.: 50 µg/mL
Coliform 7/70
  M.I.C.: 3.12 µg/mL
Proteus 7/70
  M.I.C.: 1.56 µg/mL

## CC1(C)S[C@@H]2[C@H](N=CN3CCCCCC3)C(=O)N2[C@H]1C(=O)O [II, 6-[(hexahydro-1H-azepin-1-yl)methyleneamino]penicillanic acid]
[2]
  M.I.C.: 100 µg/mL
Coliform 9/70
  M.I.C.: 3.12 µg/mL
Coliform 3/70
  M.I.C.: 12.5 µg/mL
[4]; passage 0
  MIC: 0.39 µg/mL
[4]; passage 1
  MIC: 6.25 µg/mL
[4]; passage 2
  MIC: 25 µg/mL
[4]; passage 3
  MIC: 25 µg/mL
[4]; passage 4
  MIC: 25 µg/mL
[4]; passage 5
  MIC: 25 µg/mL
[4]; passage 7
  MIC: 25 µg/mL
[4]; passage 8
  MIC: 25 µg/mL

## CC1(C)S[C@@H]2[C@H](N=CN3CCCCC3)C(=O)N2[C@H]1C(=O)O [IV, 6-[(piperidyl-1)-methyleneamino]penicillanic acid]
Coliform 16/70
  M.I.C.: 1.56 µg/mL
Coliform 14/70
  M.I.C.: 3.12 µg/mL
Coliform 7/70
  M.I.C.: 1.56 µg/mL
E.coli III
  MIC: 6.25 µg/mL

## CC(=O)OCC1=C(C(=O)O)N2C(=O)[C@@H](NC(=O)Cc3cccs3)[C@H]2SC1 [VI, cephalotin]
Coliforma strain 14
  MIC: 12.5 µg/mL
Coliforma strain 3
  MIC: 6.25 µg/mL
Coliforma strain 7
  MIC: 12.5 µg/mL
[2]
  M.I.C.: 3.12 µg/mL
[3]
  M.I.C.: 50 µg/mL
[14]
  MIC: 25 µg/mL

## CCN(C=N[C@@H]1C(=O)N2[C@@H]1SC(C)(C)[C@@H]2C(=O)O)CC [VII, 6-[(N,N-diethylformamidino)-N'-amino]penicillanic acid]
Coliforma strain 14
  MIC: 12.5 µg/mL
Coliforma strain 3
  MIC: 6.25 µg/mL
Proteus strain 9
  MIC: 100 µg/mL
Coliforma strain 4
  MIC: 3.12 µg/mL
[5]
  MIC: > 100 µg/mL
[14]
  MIC: > 100 µg/mL
[6]
  MIC: > 100 µg/mL
[7]
  MIC: > 100 µg/mL

## CC1(C)S[C@@H]2[C@H](NC(=O)Cc3ccccc3)C(=O)N2[C@H]1C(=O)O [benzylpenicillin]
[1]
  M.I.C.: 25 µg/mL

## CC1(C)S[C@@H]2[C@H](NC(=O)C(C(=O)O)c3ccccc3)C(=O)N2[C@H]1C(=O)O (stereo partly drawn) [α-carboxybenzylpenicillin]
[1]
  M.I.C.: 12.5 µg/mL
